Assay [1] in a line: inhibitors of intracellular T. cruzi replication, confirmation, NIH3T3 host cells, beta-gal luminescence (AID 2044).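 Also: intracellular parasites grown in NIH/3T3 mouse fibroblasts as host cells; luminescent beta-galactosidase reporter signal from transgenic T. cruzi replicating inside host cells; inhibitors lower the luminescence signal.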 The class given is functional, cell-based.
Assay [2] is described as follows: cytotoxicity toward NIH3T3 fibroblasts, dose response, counter-screen, cell-based, ATP luminescence, mouse fibroblasts (AID 2010).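 Also: cells exposed to compound for about 90 hours before reading.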 The class given is functional.
The target in assay [3] is Ras and Rab interactor 1/Tyrosine-protein kinase ABL1 (Homo sapiens, UniProt P00519+Q13671). The format is functional.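 Also: biochemical TR-FRET dose-response test measuring inhibition of binding between Rin1 and Abl proteins.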
In assay [4] the target is T1, DNA repair and recombination protein RAD54-like (Homo sapiens, UniProt Q92698).
T1 sequence (Q92698 whole entry): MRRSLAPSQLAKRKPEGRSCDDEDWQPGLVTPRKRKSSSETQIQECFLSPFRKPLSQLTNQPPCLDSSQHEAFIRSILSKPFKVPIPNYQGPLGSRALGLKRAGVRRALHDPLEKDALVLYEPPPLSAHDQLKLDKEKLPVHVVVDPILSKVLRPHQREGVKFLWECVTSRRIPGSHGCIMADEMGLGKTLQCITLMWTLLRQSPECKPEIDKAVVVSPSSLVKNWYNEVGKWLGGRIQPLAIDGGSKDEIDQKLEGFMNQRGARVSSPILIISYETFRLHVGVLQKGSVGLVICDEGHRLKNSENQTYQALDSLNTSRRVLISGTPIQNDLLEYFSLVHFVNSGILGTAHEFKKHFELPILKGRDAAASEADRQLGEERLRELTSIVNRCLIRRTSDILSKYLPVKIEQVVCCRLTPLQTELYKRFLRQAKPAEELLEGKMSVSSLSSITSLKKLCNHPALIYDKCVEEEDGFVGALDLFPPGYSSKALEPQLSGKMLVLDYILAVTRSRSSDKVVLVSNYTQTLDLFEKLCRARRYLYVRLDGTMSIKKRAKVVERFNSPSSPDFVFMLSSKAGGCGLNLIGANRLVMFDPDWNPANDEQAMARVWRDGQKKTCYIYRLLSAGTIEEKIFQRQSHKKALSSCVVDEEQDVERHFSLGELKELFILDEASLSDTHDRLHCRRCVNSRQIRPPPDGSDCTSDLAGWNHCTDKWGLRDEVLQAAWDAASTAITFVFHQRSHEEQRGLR
The experiment in a line: inhibitors of human RAD54 branch migration, confirmation, biochemical, fluorescence, cherry-picked samples, dose series (AID 651657). The format is functional.

A short description of assay [5]: HEp-2 cell cytotoxicity, dose response, cytotoxicity control for RSV inhibitor project, HTS (AID 2410). The format is functional. Conditions: human respiratory syncytial virus.
Assay [6] has as its system CHO-K1. The assay can be described thus: Counterscreen for antagonists of the orexin 1 receptor (OX1R; HCRTR1): Homogeneous time resolved fluorescence (HTRF)-based cell-based dose response assay to identify antagonists of the parental CHO-K1 cell line. [Related pubchem assays (depositor defined):AID434989, AID435008, AID463079, AID485270, AID492963, AID492964, AID492965, AID493232, AID504699, AID504701]. The class given is functional. The following applies: Cricetulus griseus.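 Also: potency for inhibition of ATP-stimulated IP1 production as antagonists.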

A short description of assay [7]: Counterscreen for antagonists of the orexin 1 receptor (OX1R; HCRTR1): Fluorescence-based cell-based high throughput dose response assay to identify antagonists of the parental CHO cell line. [Related pubchem assays (depositor defined):AID434989, AID435008, AID463079, AID485270, AID492963, AID492964, AID492965, AID493232, AID504699, AID504701]. The class given is functional.

Assay [8] concerns the target T2, Orexin/Hypocretin receptor type 1 (Homo sapiens, UniProt O43613).
T2 sequence (O43613 whole entry): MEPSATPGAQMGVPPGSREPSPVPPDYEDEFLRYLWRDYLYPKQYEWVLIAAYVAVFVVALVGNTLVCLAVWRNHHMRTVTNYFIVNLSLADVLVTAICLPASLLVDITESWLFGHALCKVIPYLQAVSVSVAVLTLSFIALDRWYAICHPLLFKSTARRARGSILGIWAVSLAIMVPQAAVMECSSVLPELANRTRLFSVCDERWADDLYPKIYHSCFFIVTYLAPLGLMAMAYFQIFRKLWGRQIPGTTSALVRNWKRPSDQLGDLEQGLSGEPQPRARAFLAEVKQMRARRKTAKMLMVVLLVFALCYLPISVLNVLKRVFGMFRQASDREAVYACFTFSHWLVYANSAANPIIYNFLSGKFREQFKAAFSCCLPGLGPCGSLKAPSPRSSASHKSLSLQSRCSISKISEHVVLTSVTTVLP
The assay can be described thus: Homogeneous Time Resolved Fluorescence (HTRF)-based cell-based high throughput dose response assay for antagonists of the orexin 1 receptor (OX1R; HCRTR1). [Related pubchem assays (depositor defined):AID434989, AID435008, AID463079, AID485270, AID492963, AID492964, AID492965, AID493232, AID504717, AID504718]. The class given is functional.

For assay [9], the target named is T2, Orexin/Hypocretin receptor type 1. The experiment in a line: Fluorescence-based cell-based high throughput dose response assay for antagonists of the orexin 1 receptor (OX1R; HCRTR1). [Related pubchem assays (depositor defined):AID434989, AID435008, AID463079, AID485270, AID492963, AID492964, AID492965, AID493232, AID504717, AID504718]. The class given is functional.

For assay [10], the target named is T3, Endoribonuclease toxin MazF (Escherichia coli K-12, UniProt P0AE70).
T3 sequence (P0AE70 whole entry): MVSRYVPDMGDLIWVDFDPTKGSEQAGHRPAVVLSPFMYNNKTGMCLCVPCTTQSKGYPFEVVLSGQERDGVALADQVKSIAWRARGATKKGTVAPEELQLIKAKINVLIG
The experiment in a line: MazF toxin RNase activators, dose response, biochemical, fluorescence, single-stranded RNA substrate, uHTS hits (AID 588481). The class given is functional.

The target in assay [11] is T3, Endoribonuclease toxin MazF. The assay can be described thus: fluorescent RNA oligo signal without MazF, dose response, counter-screen for MazEF activator project, biochemical, fluorescence, single-stranded RNase substrate (AID 588502). The class given is functional.
The target in assay [12] is T4, Orexin receptor type 2 (Homo sapiens, UniProt O43614).
T4 sequence (O43614 whole entry): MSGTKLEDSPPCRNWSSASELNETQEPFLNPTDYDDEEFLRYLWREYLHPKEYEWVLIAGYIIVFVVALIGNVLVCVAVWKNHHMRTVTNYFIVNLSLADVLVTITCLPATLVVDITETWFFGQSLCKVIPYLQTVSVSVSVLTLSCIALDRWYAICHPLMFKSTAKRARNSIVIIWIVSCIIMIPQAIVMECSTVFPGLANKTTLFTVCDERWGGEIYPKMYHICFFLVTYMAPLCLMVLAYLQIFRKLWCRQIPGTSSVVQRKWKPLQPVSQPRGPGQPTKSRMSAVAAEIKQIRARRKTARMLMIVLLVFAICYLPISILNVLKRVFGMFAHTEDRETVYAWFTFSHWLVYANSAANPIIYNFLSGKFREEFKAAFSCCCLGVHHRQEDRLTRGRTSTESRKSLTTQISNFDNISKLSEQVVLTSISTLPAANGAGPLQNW
The assay can be described thus: Counterscreen assay for antagonists of the orexin 1 receptor (OX1R; HCRTR1): Fluorescence-based cell-based dose response assay for antagonists of the orexin 2 receptor (OX2R; HCRTR2), run by assay provider. The format is functional.

The target of assay [13] is T4, Orexin receptor type 2. The assay can be described thus: Counterscreen assay for antagonists of the orexin 1 receptor (OX1R; HCRTR1): Homogeneous Time Resolved Fluorescence (HTRF)-based cell-based dose response assay for antagonists of the orexin 2 receptor (OX2R; HCRTR2), run by assay provider. The format is functional.
Assay [14] concerns the target T5, Sentrin-specific protease 1 (Homo sapiens, UniProt Q9P0U3).
T5 sequence (Q9P0U3 whole entry): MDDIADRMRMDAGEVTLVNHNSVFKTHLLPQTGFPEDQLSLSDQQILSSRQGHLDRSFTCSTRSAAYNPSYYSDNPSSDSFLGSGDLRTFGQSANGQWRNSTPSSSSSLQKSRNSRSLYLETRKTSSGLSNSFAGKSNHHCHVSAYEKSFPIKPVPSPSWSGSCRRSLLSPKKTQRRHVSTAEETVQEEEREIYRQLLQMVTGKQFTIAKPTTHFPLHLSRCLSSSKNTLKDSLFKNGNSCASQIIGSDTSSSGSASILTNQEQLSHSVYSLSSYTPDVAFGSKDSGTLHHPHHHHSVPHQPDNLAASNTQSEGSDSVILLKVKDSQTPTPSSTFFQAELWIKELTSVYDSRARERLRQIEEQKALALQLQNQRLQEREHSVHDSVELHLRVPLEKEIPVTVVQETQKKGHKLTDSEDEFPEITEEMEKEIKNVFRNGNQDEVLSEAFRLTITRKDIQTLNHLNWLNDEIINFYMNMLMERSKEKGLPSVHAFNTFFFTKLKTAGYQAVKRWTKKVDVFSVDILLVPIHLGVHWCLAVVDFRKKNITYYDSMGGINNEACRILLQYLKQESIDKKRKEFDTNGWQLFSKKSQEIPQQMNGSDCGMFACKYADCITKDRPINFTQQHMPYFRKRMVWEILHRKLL
The experiment in a line: potency of human SENP1 inhibitors, dose response, biochemical, kinetic FRET (AID 651697). The class given is functional. The following applies: read-out: IC50_Mean.

The target of assay [15] is T5, Sentrin-specific protease 1. The experiment in a line: Dose response confirmation of small molecule inhibitors of the catalytic domain of the SUMO protease, SENP1 in a FRET assay. The format is functional. The following applies: read-out: IC50_Mean.
Assay [16] deals with T6, Mitochondrial peptide methionine sulfoxide reductase (Bos taurus, UniProt P54149).
T6 sequence (P54149 whole entry): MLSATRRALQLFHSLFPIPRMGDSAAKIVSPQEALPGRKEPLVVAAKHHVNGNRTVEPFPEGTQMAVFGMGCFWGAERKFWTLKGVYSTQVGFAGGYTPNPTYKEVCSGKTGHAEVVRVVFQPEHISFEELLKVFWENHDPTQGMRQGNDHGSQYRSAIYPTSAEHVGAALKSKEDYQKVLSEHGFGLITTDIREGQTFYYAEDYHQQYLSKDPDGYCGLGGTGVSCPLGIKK
The format is functional.

Assay [17] can be described thus: Shn3 3'UTR reporter inhibitors, dose response, cell-based, Clone20 osteoblasts, firefly luciferase, cherry-picked (AID 624132).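 Also: firefly luciferase luminescence from reporter carrying the Shn3 3'UTR in osteoblasts.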 The class given is functional.
Assay [18] is described as follows: HepG2 cell cytotoxicity, dose response, cytotoxicity control for Shn3 inhibitor project, CellTiter-Glo, cherry-picked (AID 624134). The class given is functional, cell-based.
Assay [19] can be described thus: control 3'UTR Renilla luciferase suppression, dose response, counter-screen for Shn3 inhibitor project, cell-based, Clone20-Shn3RL, cherry-picked (AID 624133). The format is functional.

Activity calls are given as the source filed them.

Sequence of Ras and Rab interactor 1/Tyrosine-protein kinase ABL1 (P00519 whole entry): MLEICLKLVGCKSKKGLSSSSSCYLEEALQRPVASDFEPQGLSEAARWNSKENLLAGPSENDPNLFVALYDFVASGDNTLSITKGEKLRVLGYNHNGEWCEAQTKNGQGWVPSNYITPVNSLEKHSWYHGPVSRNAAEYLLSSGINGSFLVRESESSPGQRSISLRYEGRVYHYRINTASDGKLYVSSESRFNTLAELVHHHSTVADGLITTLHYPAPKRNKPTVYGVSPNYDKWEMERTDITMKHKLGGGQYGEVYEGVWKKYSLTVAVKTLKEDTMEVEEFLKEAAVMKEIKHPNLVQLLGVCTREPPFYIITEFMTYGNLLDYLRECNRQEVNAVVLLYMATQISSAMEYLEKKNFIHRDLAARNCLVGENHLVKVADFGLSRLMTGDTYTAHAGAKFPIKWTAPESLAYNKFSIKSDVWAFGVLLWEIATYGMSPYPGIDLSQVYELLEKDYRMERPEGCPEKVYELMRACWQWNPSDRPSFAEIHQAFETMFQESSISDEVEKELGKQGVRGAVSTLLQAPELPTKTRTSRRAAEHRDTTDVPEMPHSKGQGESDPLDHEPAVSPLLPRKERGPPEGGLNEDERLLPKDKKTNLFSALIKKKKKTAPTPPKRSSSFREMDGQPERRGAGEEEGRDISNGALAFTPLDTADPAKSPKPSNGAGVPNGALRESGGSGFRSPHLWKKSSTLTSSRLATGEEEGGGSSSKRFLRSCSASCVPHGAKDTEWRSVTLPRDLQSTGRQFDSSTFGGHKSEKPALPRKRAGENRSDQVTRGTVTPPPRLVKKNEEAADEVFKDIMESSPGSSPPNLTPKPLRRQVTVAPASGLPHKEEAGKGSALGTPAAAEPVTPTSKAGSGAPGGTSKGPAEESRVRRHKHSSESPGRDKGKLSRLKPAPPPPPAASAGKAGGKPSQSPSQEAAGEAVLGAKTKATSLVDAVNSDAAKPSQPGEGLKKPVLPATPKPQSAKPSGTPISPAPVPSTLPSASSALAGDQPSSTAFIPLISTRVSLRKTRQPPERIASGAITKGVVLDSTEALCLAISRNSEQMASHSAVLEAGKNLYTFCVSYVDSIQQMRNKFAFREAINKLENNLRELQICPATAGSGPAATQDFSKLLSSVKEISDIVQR
Sequence of Ras and Rab interactor 1/Tyrosine-protein kinase ABL1 (Q13671 whole entry): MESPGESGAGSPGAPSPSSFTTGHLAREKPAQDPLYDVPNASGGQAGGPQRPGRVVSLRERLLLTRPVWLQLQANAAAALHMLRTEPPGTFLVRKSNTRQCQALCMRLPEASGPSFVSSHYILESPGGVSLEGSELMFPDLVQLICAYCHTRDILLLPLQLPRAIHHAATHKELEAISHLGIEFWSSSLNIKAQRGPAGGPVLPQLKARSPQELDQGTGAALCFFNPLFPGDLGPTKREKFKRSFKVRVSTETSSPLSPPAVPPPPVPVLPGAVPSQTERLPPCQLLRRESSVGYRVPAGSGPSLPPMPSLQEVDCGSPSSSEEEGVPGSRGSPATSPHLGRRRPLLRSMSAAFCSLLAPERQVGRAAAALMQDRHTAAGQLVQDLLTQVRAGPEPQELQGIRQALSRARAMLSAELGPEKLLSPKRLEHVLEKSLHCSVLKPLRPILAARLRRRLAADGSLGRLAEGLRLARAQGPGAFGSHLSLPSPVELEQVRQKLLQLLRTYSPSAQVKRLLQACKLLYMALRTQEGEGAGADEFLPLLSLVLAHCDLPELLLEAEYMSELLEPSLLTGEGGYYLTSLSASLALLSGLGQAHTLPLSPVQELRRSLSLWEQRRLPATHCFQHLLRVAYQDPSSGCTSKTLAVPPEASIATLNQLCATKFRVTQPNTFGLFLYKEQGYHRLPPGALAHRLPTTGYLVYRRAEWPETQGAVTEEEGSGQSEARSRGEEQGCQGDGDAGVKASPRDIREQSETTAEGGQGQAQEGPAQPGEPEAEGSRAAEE

`OCCN1CCN(c2ncnc3c2sc2nc(N4CCOCC4)c4c(c23)CCC4)CC1`: the figures for the half-maximal effective concentration (EC50) in assay [1] and in [2] were 0.241 µM (active) and > 60 µM (not active), respectively. In assay [3], the IC50 is 24.2 µM (inactive). Besides, in [4], the AC50 is 11.4 µM (active).

Take `Cc1cccc2c3nc4ccccc4nc3n(C)c12`: in assay [5], the CC50 was > 50 µM (active). Besides, the IC50 in assay [6] was > 66.2 µM (inactive); in assay [7] it was > 49.7 µM (inactive); in assay [8], 1.33 µM (active); in [9], 8.12 µM (active); in assay [12], 11 µM (inactive); in assay [13] it was 5.76 µM (active). For the same compound, the figures for the EC50 in assay [10] and in assay [11] were > 99 µM (inactive) and 51.9 µM (inactive), respectively.

`CCN(CC)c1nc2cc(C)ccc2cc1/C=C(\C#N)C(N)=O`: the IC50 is 17.3 µM (active) in [14] and 20 µM (inactive) in assay [15].

Regarding `O=C(NN=Cc1sc(=O)[n-]c1-[n+]1ccc(-c2ccncc2)cc1)c1ccccc1`, the IC50 in assay [16] is 155 µM (inactive).

For the compound `COc1ccccc1NC(=O)[C@@H]1CCCN1S(=O)(=O)c1ccc(Cl)cc1`, the IC50 is > 66.2 µM (inactive) in assay [6]; > 49.7 µM (inactive) in assay [7]; 1.21 µM (active) in [8]; 13.2 µM (inactive) in assay [9]; 11 µM (inactive) in assay [12]; 6.28 µM (active) in assay [13].

Take `Cn1cnc([N+](=O)[O-])c1S(=O)(=O)Oc1ccccc1`: the AC50 in assay [17] is 3.83 µM (active); in [18], 42.3 µM (active); in assay [19], 24.1 µM (active). Moreover, in [16], the IC50 was 48 µM (inactive).

In the case of `COCCCNC(=O)CCC(=O)NNc1nc2ccccc2c2nc(-c3ccccc3)nn12`, the IC50 in assay [6] was > 66.2 µM (inactive); in assay [7], > 49.7 µM (inactive); in [8] it was 3.55 µM (active); in [9], 11.7 µM (inactive); in [12], > 88.8 µM (inactive); in [13], > 50 µM (inactive).

On to `CN(C(=O)c1ccc(NC(=O)Cc2cccc(NC(=O)C3CCN(C(=O)C4CCCCC4)CC3)c2)cc1)C1CC1`, for which the IC50 in [3] was 18.9 µM (inactive).

The record behind these values is ChEMBL document CHEMBL1201862, “PubChem BioAssay data set” (2004).
